From ChEMBL document CHEMBL4680234, “Antibacterial AZT derivative regulates metastasis of breast cancer cells” (Eur J Med Chem, 2020) come the findings set out here.

The nature of data set [1]: Therapeutic index, ratio of MHC for sheep RBC to geometric mean of peptide MIC for Staphylococcus aureus KCTC 1621. It counts as toxicity. The settings on record: sheep red blood cells (erythrocytes), read-out: TI.
A short description of data set [2]: Therapeutic index, ratio of MHC for sheep RBC to geometric mean of peptide MIC for Escherichia coli KCTC 1682. It counts as toxicity. As to conditions: sheep red blood cells (erythrocytes), read-out: TI.
Data set [3] deals with Pseudomonas aeruginosa. Description: Antibacterial activity against Pseudomonas aeruginosa KCTC 1637 assessed as reduction in bacterial growth incubated for 18 to 22 hrs by spectrophotometry based broth microdilution method. In kind it is functional. The settings on record: time 18-22 hrs, read-out: MIC100. For orientation: In broth dilution the organism is exposed to a series of concentrations in liquid medium.

For data set [4], the system named is Staphylococcus aureus. Briefly: Antibacterial activity against Staphylococcus aureus KCTC 1621 assessed as reduction in bacterial growth incubated for 18 to 22 hrs by spectrophotometry based broth microdilution method. In kind it is functional. The settings on record: time 18-22 hrs, read-out: MIC100.
Data set [5] concerns Bacillus subtilis. Description: Antibacterial activity against Bacillus subtilis KCTC 3068 assessed as reduction in bacterial growth incubated for 18 to 22 hrs by spectrophotometry based broth microdilution method. In kind it is functional. The settings on record: time 18-22 hrs, read-out: MIC100.
Data set [6] deals with Staphylococcus aureus. Description: Potency index, ratio of melittin MIC to test compound MIC for antibacterial activity against Staphylococcus aureus KCTC 1621. In kind it is functional.
Data set [7] can be described thus: Therapeutic index, ratio of MHC for sheep RBC to geometric mean of peptide MIC for Pseudomonas aeruginosa KCTC 1637. In kind it is toxicity. The settings on record: sheep red blood cells (erythrocytes), read-out: TI.
The test system of data set [8] is Escherichia coli. Briefly: Antibacterial activity against Escherichia coli KCTC 1682 assessed as reduction in bacterial growth incubated for 18 to 22 hrs by spectrophotometry based broth microdilution method. In kind it is functional. The settings on record: time 18-22 hrs, read-out: MIC100.
Data set [9] concerns Erythrocyte. Briefly: Hemolytic activity in sheep RBC measured after 2 hrs by ELISA. In kind it is ADME, cell-based, Ovis aries. (In general: ELISA stands for enzyme-linked immunosorbent assay.)
The subject of data set [10] is Erythrocyte. Description: Hemolytic activity in sheep RBC at 16 ug/ml measured after 2 hrs by ELISA. It counts as cell-based, Ovis aries. The settings on record: dose 16 µg/ml.
Data set [11] relates to Pseudomonas aeruginosa. Description: Potency index, ratio of melittin MIC to test compound MIC for antibacterial activity against Pseudomonas aeruginosa KCTC 1637. It counts as functional.
In data set [12] the test system is Bacillus subtilis. Briefly: Potency index, ratio of melittin MIC to test compound MIC for antibacterial activity against Bacillus subtilis KCTC 3068. In kind it is functional.
A short description of data set [13]: Therapeutic index, ratio of MHC for sheep RBC to geometric mean of peptide MIC for Bacillus subtilis KCTC 3068. In kind it is toxicity. The settings on record: sheep red blood cells (erythrocytes), read-out: TI.
Data set [14] has as its system Escherichia coli. Briefly: Potency index, ratio of melittin MIC to test compound MIC for antibacterial activity against Escherichia coli KCTC 1682. It counts as functional.
The test system of data set [15] is Staphylococcus aureus. Briefly: Antimicrobial activity against methicillin-resistant Staphylococcus aureus CCARM 3089 assessed as reduction in microbial growth incubated for 18 to 24 hrs by broth microdilution method. In kind it is functional. As to conditions: time 18-24 hrs.
Data set [16] concerns Staphylococcus aureus. Briefly: Antimicrobial activity against methicillin-resistant Staphylococcus aureus CCARM 3095 assessed as reduction in microbial growth incubated for 18 to 24 hrs by broth microdilution method. In kind it is functional. As to conditions: time 18-24 hrs.
In data set [17] the test system is Staphylococcus aureus. Description: Antimicrobial activity against methicillin-resistant Staphylococcus aureus CCARM 3090 assessed as reduction in microbial growth incubated for 18 to 24 hrs by broth microdilution method. It counts as functional. The settings on record: time 18-24 hrs.
Data set [18] can be described thus: Hemolytic activity in sheep RBC assessed as hemolysis at 4 ug/ml measured after 2 hrs by ELISA relative to control. It counts as ADME, cell-based, Ovis aries, Erythrocyte. The settings on record: sheep red blood cells (erythrocytes), at 4 µg/mL, read-out: Activity.

In brackets after ≈: the same amount, converted by molar mass.

Turning to `Cc1cn([C@H]2C[C@H](NC(=O)CC34CC5CC(CC(C5)C3)C4)[C@@H](CNC(=O)CC34CC5CC(CC(C5)C3)C4)O2)c(=O)nc1N(CCCN)CCCN`, the selectivity ratio in data set [1], in data set [2], in [7] and in [13] was 5 each time. Also, the MIC with Pseudomonas aeruginosa [3] worked out at 4 mg/L (≈ 5.67 µM); in the data set with Staphylococcus aureus [4] it was 4 mg/L (≈ 5.67 µM); with Bacillus subtilis [5], 2 mg/L (≈ 2.83 µM); in the data set with Escherichia coli [8], 32 mg/L (≈ 45.3 µM). Moreover, the Ratio in the data set on Staphylococcus aureus [6] was 2; in the data set with Pseudomonas aeruginosa [11], 4; with Bacillus subtilis [12], 4. The MHC in the data set with Erythrocyte [9] came out at 52 µg/mL. The Activity entry in the data set on Erythrocyte [10] is “Non-Toxic”.

Turning to `Cc1cn([C@H]2C[C@H](NC(=O)Cc3cccc4ccccc34)[C@@H](CNC(=O)Cc3cccc4ccccc34)O2)c(=O)nc1N(CCCNC(=N)N)CCCNC(=N)N`, the MIC stood at 16 mg/L (≈ 20.7 µM) in the data set with Pseudomonas aeruginosa [3], 8 mg/L (≈ 10.3 µM) in the data set with Staphylococcus aureus [4], 4 mg/L (≈ 5.17 µM) with Bacillus subtilis [5] and 64 mg/L (≈ 82.7 µM) in the data set with Escherichia coli [8]. The Ratio with Bacillus subtilis [12] is listed as 2.

In the case of `CCCCCC(=O)NC[C@H]1O[C@@H](n2cc(C)c(N(CCCNC(=N)N)CCCNC(=N)N)nc2=O)C[C@@H]1NC(=O)CCCCC`, the MIC was 16 mg/L (≈ 25.2 µM) with Pseudomonas aeruginosa [3], 32 mg/L (≈ 50.5 µM) with Staphylococcus aureus [4], 32 mg/L (≈ 50.5 µM) in the data set on Bacillus subtilis [5] and above 64 mg/L in the data set on Escherichia coli [8].

With `Cc1cn([C@H]2C[C@H](NC(=O)CC34CC5CC(CC(C5)C3)C4)[C@@H](CNC(=O)CC34CC5CC(CC(C5)C3)C4)O2)c(=O)nc1NCCNC(=N)N`, the selectivity ratio in data set [1], in [2], in [7] and in data set [13] was 0.9 in each case. Also, the MIC in the data set on Pseudomonas aeruginosa [3] is above 64 mg/L; in the data set with Staphylococcus aureus [4], 4 mg/L (≈ 5.91 µM); with Bacillus subtilis [5], 4 mg/L (≈ 5.91 µM); in the data set with Escherichia coli [8], 64 mg/L (≈ 94.5 µM). Further, the Ratio with Escherichia coli [14] and in the data set with Pseudomonas aeruginosa [11] was 2 throughout. This compound also had an MHC in the data set on Erythrocyte [9] of 43 µg/mL. In the data set on Erythrocyte [10], the Activity entry is “Non-Toxic”.

`Cc1cn([C@H]2C[C@H](NC(=O)Cc3cccc4ccccc34)[C@@H](CNC(=O)Cc3cccc4ccccc34)O2)c(=O)nc1N(CCCN)CCCN`: the MIC worked out at 8 mg/L (≈ 11.6 µM) in the data set with Pseudomonas aeruginosa [3], 16 mg/L (≈ 23.2 µM) with Staphylococcus aureus [4], 4 mg/L (≈ 5.8 µM) in the data set on Bacillus subtilis [5] and 64 mg/L (≈ 92.8 µM) with Escherichia coli [8]. Further, the Ratio amounted to 4 with Escherichia coli [14], 2 in the data set on Staphylococcus aureus [6], 2 with Pseudomonas aeruginosa [11] and 2 in the data set with Bacillus subtilis [12].

For `O=C(N[C@H](CO)[C@H](O)c1ccc([N+](=O)[O-])cc1)C(Cl)Cl` [CHLORAMPHENICOL], the MIC in the data set on Staphylococcus aureus [15] came out at 512 mg/L; in the data set on Staphylococcus aureus [16], 512 mg/L; in the data set on Staphylococcus aureus [17], 256 mg/L.

As for `Cc1cn([C@H]2C[C@H](NC(=O)C3CCCCC3)[C@@H](CNC(=O)C3CCCCC3)O2)c(=O)nc1N(CCCN)CCCN`, the MIC is 64 mg/L (≈ 112 µM) in the data set with Pseudomonas aeruginosa [3], above 64 mg/L in the data set with Staphylococcus aureus [4], 64 mg/L (≈ 112 µM) in the data set with Bacillus subtilis [5] and above 64 mg/L with Escherichia coli [8].

With `Cc1cn([C@H]2C[C@H](NC(=O)C3CCCCC3)[C@@H](CNC(=O)C3CCCCC3)O2)c(=O)nc1N(CCCNC(=N)N)CCCNC(=N)N`, the MIC in the data set with Pseudomonas aeruginosa [3] is 16 mg/L (≈ 24.3 µM); with Staphylococcus aureus [4], 32 mg/L (≈ 48.6 µM); with Bacillus subtilis [5] it was 32 mg/L (≈ 48.6 µM); in the data set on Escherichia coli [8] it was above 64 mg/L.

In the case of `CCCCCC(=O)NC[C@H]1O[C@@H](n2cc(C)c(NCCNC(=N)N)nc2=O)C[C@@H]1NC(=O)CCCCC`, the MIC with Pseudomonas aeruginosa [3] is 64 mg/L (≈ 123 µM); in the data set on Staphylococcus aureus [4] it was above 64 mg/L; in the data set with Bacillus subtilis [5], above 64 mg/L; in the data set on Escherichia coli [8], above 64 mg/L.

Take `Cc1cn([C@H]2C[C@H](NC(=O)C3CCCCC3)[C@@H](CNC(=O)C3CCCCC3)O2)c(=O)nc1NCCNC(=N)N`: the MIC in the data set on Pseudomonas aeruginosa [3], in the data set on Staphylococcus aureus [4], with Bacillus subtilis [5] and in the data set on Escherichia coli [8] was above 64 mg/L each time.

`Cc1cn([C@H]2C[C@H](NC(=O)CCCc3ccccc3)[C@@H](CNC(=O)CCCc3ccccc3)O2)c(=O)nc1N(CCCN)CCCN`: the MIC with Pseudomonas aeruginosa [3] is 4 mg/L (≈ 6.19 µM); in the data set on Staphylococcus aureus [4] it was 32 mg/L (≈ 49.5 µM); in the data set with Bacillus subtilis [5], 16 mg/L (≈ 24.8 µM); in the data set on Escherichia coli [8] it was above 64 mg/L.

`O=C(O)c1cn(C2CC2)c2cc(N3CCNCC3)c(F)cc2c1=O` [CIPROFLOXACIN]: the MIC in the data set with Staphylococcus aureus [15], in the data set with Staphylococcus aureus [16] and in the data set with Staphylococcus aureus [17] was 512 mg/L throughout.

For `CCCCCC(=O)NC[C@H]1O[C@@H](n2cc(C)c(N(CCCN)CCCN)nc2=O)C[C@@H]1NC(=O)CCCCC`, the MIC is 8 mg/L (≈ 14.6 µM) in the data set on Pseudomonas aeruginosa [3], above 64 mg/L in the data set on Staphylococcus aureus [4], 64 mg/L (≈ 116 µM) with Bacillus subtilis [5] and above 64 mg/L with Escherichia coli [8].

As for `CC[C@H](C)[C@H](NC(=O)CN)C(=O)NCC(=O)N[C@@H](C)C(=O)N[C@H](C(=O)N[C@@H](CC(C)C)C(=O)N[C@@H](CCCCN)C(=O)N[C@H](C(=O)N[C@@H](CC(C)C)C(=O)N[C@H](C(=O)N[C@H](C(=O)NCC(=O)N[C@@H](CC(C)C)C(=O)N1CCC[C@H]1C(=O)N[C@@H](C)C(=O)N[C@@H](CC(C)C)C(=O)N[C@H](C(=O)N[C@@H](CO)C(=O)N[C@@H](Cc1c[nH]c2ccccc12)C(=O)N[C@H](C(=O)N[C@@H](CCCCN)C(=O)N[C@@H](CCCNC(=N)N)C(=O)N[C@@H](CCCCN)C(=O)N[C@@H](CCCNC(=N)N)C(=O)N[C@@H](CCC(N)=O)C(=O)N[C@@H](CCC(N)=O)C(N)=O)[C@@H](C)CC)[C@@H](C)CC)[C@@H](C)O)[C@@H](C)O)C(C)C)C(C)C` [MELITTIN], the selectivity ratio in data set [1], in [2], in data set [7] and in data set [13] was 0.3 in each case. The hemolysis at 2 h, 4 ug/ml in data set [18] was found to be 12%. This compound displayed an MHC with Erythrocyte [9] of 4 µg/mL.

Regarding `Cc1cn([C@H]2C[C@H](NC(=O)Cc3cccc4ccccc34)[C@@H](CNC(=O)Cc3cccc4ccccc34)O2)c(=O)nc1NCCNC(=N)N`, the MIC in the data set on Pseudomonas aeruginosa [3] is above 64 mg/L; in the data set on Staphylococcus aureus [4] it was 32 mg/L (≈ 48.4 µM); in the data set with Bacillus subtilis [5], 16 mg/L (≈ 24.2 µM); in the data set with Escherichia coli [8], above 64 mg/L.

Consider `Cc1onc(-c2ccccc2)c1C(=O)N[C@@H]1C(=O)N2[C@@H]1SC(C)(C)[C@@H]2C(=O)O` [OXACILLIN], for which the MIC was 256 mg/L in the data set on Staphylococcus aureus [15], 256 mg/L in the data set with Staphylococcus aureus [16] and 512 mg/L in the data set with Staphylococcus aureus [17].

With `Cc1cn([C@H]2C[C@H](NC(=O)CCCc3ccccc3)[C@@H](CNC(=O)CCCc3ccccc3)O2)c(=O)nc1NCCNC(=N)N`, the MIC with Pseudomonas aeruginosa [3] is 32 mg/L (≈ 51.9 µM); with Staphylococcus aureus [4] it was 64 mg/L (≈ 104 µM); in the data set on Bacillus subtilis [5], 64 mg/L (≈ 104 µM); in the data set with Escherichia coli [8] it was above 64 mg/L.

Regarding `Cc1cn([C@H]2C[C@H](NC(=O)CCCc3ccccc3)[C@@H](CNC(=O)CCCc3ccccc3)O2)c(=O)nc1N(CCCNC(=N)N)CCCNC(=N)N`, the MIC in the data set on Pseudomonas aeruginosa [3] is 16 mg/L (≈ 21.9 µM); with Staphylococcus aureus [4], 8 mg/L (≈ 11 µM); with Bacillus subtilis [5] it was 8 mg/L (≈ 11 µM); in the data set with Escherichia coli [8] it was above 64 mg/L.
